Assay results: PubChem BioAssay (NCI)
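Five compound concentrations were applied to cells in 96-well plates for 48 hours; endpoints were derived by simple linear interpolation of the resulting dose-response curve. GI50 = concentration required for 50% inhibition of growth. TGI denotes the concentration required for complete inhibition of growth.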

Legend:
Assay in all cases: NCI-60 cell line screen, 48 h
UO-31 renal = system: UO-31 renal
NCI/ADR-RES ovarian = system: NCI/ADR-RES ovarian
SNB-75 CNS = system: SNB-75 CNS
HOP-92 NSCLC = system: HOP-92 NSCLC
TK-10 renal = system: TK-10 renal
NCI-H226 lung = system: NCI-H226 lung
SR leukemia = system: SR leukemia
SF-295 CNS = system: SF-295 CNS
MALME-3M melanoma = system: MALME-3M melanoma
SF-539 CNS = system: SF-539 CNS
SK-MEL-2 melanoma = system: SK-MEL-2 melanoma
OVCAR-3 ovarian = system: OVCAR-3 ovarian
SW-620 colon = system: SW-620 colon
786-0 renal = system: 786-0 renal
M14 melanoma = system: M14 melanoma
HL-60(TB) leukemia = system: HL-60(TB) leukemia
UACC-62 melanoma = system: UACC-62 melanoma
SN12C renal = system: SN12C renal
HCC-2998 colon = system: HCC-2998 colon
KM12 colon = system: KM12 colon
HCT-116 colon = system: HCT-116 colon
CCRF-CEM leukemia = system: CCRF-CEM leukemia
MOLT-4 leukemia = system: MOLT-4 leukemia
RPMI-8226 leukemia = system: RPMI-8226 leukemia
A549 NSCLC = system: A549 NSCLC
IGROV1 ovarian = system: IGROV1 ovarian
U251 CNS = system: U251 CNS
SF-268 CNS = system: SF-268 CNS
MCF7 breast = system: MCF7 breast
NCI-H460 lung = system: NCI-H460 lung
DU-145 prostate = system: DU-145 prostate
HS 578T breast = system: HS 578T breast
CAKI-1 renal = system: CAKI-1 renal
K-562 leukemia = system: K-562 leukemia
UACC-257 melanoma = system: UACC-257 melanoma
COLO 205 colon = system: COLO 205 colon
BT-549 breast = system: BT-549 breast
RXF 393 renal = system: RXF 393 renal
T-47D breast = system: T-47D breast
OVCAR-5 ovarian = system: OVCAR-5 ovarian
LOX IMVI melanoma = system: LOX IMVI melanoma
EKVX NSCLC = system: EKVX NSCLC
SK-OV-3 ovarian = system: SK-OV-3 ovarian
HT29 colon = system: HT29 colon
HCT-15 colon = system: HCT-15 colon
SNB-19 CNS = system: SNB-19 CNS
HOP-62 NSCLC = system: HOP-62 NSCLC
A498 renal = system: A498 renal
PC-3 prostate = system: PC-3 prostate
OVCAR-8 ovarian = system: OVCAR-8 ovarian
NCI-H23 lung = system: NCI-H23 lung
MDA-MB-435 = system: MDA-MB-435
SK-MEL-28 melanoma = system: SK-MEL-28 melanoma
NCI-H522 lung = system: NCI-H522 lung
MDA-MB-231 breast = system: MDA-MB-231 breast
OVCAR-4 ovarian = system: OVCAR-4 ovarian
SK-MEL-5 melanoma = system: SK-MEL-5 melanoma
ACHN renal = system: ACHN renal

Which results are given for NC(=N\N=C/c1ccc(Cl)cc1Cl)/C(N)=N\N=C/c1ccc(Cl)cc1Cl?
GI50 (UO-31 renal): 13.3 µM; TGI (UO-31 renal): > 83.6 µM; GI50 (NCI/ADR-RES ovarian): 38.7 µM; TGI (NCI/ADR-RES ovarian): > 100 µM; GI50 (SNB-75 CNS): 1.65 µM; TGI (SNB-75 CNS): 13.4 µM; GI50 (HOP-92 NSCLC): 6.54 µM; TGI (HOP-92 NSCLC): 56.1 µM; GI50 (TK-10 renal): 1.25 µM; TGI (TK-10 renal): 16.7 µM; GI50 (NCI-H226 lung): 9.92 µM; TGI (NCI-H226 lung): 98 µM; GI50 (SR leukemia): > 100 µM; TGI (SR leukemia): > 100 µM; GI50 (SF-295 CNS): 2.84 µM; TGI (SF-295 CNS): 89.8 µM; GI50 (MALME-3M melanoma): 41.3 µM; TGI (MALME-3M melanoma): > 100 µM; GI50 (SF-539 CNS): 8.3 µM; TGI (SF-539 CNS): > 100 µM; GI50 (SK-MEL-2 melanoma): > 57.1 µM; TGI (SK-MEL-2 melanoma): > 93.6 µM; GI50 (OVCAR-3 ovarian): 12.3 µM; TGI (OVCAR-3 ovarian): > 73.8 µM; GI50 (SW-620 colon): > 54.3 µM; TGI (SW-620 colon): > 100 µM; GI50 (786-0 renal): 1.32 µM; TGI (786-0 renal): 16.7 µM; GI50 (M14 melanoma): > 83.1 µM; TGI (M14 melanoma): > 100 µM; GI50 (HL-60(TB) leukemia): > 100 µM; TGI (HL-60(TB) leukemia): > 100 µM; GI50 (UACC-62 melanoma): > 69.2 µM; TGI (UACC-62 melanoma): > 100 µM; GI50 (SN12C renal): 30.7 µM; TGI (SN12C renal): > 100 µM; GI50 (HCC-2998 colon): > 94.7 µM; TGI (HCC-2998 colon): > 100 µM; GI50 (KM12 colon): > 100 µM; TGI (KM12 colon): > 100 µM; GI50 (HCT-116 colon): 1.19 µM; TGI (HCT-116 colon): > 100 µM; GI50 (CCRF-CEM leukemia): 36.5 µM; TGI (CCRF-CEM leukemia): > 100 µM; GI50 (MOLT-4 leukemia): > 100 µM; TGI (MOLT-4 leukemia): > 100 µM; GI50 (RPMI-8226 leukemia): > 100 µM; TGI (RPMI-8226 leukemia): > 100 µM; GI50 (A549 NSCLC): 5.99 µM; TGI (A549 NSCLC): > 100 µM; GI50 (IGROV1 ovarian): 4 µM; TGI (IGROV1 ovarian): > 100 µM; GI50 (U251 CNS): 1.02 µM; TGI (U251 CNS): 19 µM; GI50 (SF-268 CNS): 50.4 µM; TGI (SF-268 CNS): > 100 µM; GI50 (MCF7 breast): > 73.8 µM; TGI (MCF7 breast): > 100 µM; GI50 (NCI-H460 lung): 0.795 µM; TGI (NCI-H460 lung): > 100 µM; GI50 (DU-145 prostate): > 100 µM; TGI (DU-145 prostate): > 100 µM; GI50 (HS 578T breast): 3.39 µM; TGI (HS 578T breast): > 30.4 µM; GI50 (CAKI-1 renal): 16.3 µM; TGI (CAKI-1 renal): > 100 µM; GI50 (K-562 leukemia): 63.1 µM; TGI (K-562 leukemia): > 100 µM; GI50 (UACC-257 melanoma): > 100 µM; TGI (UACC-257 melanoma): > 100 µM; GI50 (COLO 205 colon): 46.2 µM; TGI (COLO 205 colon): > 100 µM; GI50 (BT-549 breast): 45.3 µM; TGI (BT-549 breast): > 93.2 µM; GI50 (RXF 393 renal): 12.8 µM; TGI (RXF 393 renal): 63.9 µM; GI50 (T-47D breast): 1.35 µM; TGI (T-47D breast): > 76.4 µM; GI50 (OVCAR-5 ovarian): > 100 µM; TGI (OVCAR-5 ovarian): > 100 µM; GI50 (LOX IMVI melanoma): 25.5 µM; TGI (LOX IMVI melanoma): > 100 µM; GI50 (EKVX NSCLC): 30.7 µM; TGI (EKVX NSCLC): > 100 µM; GI50 (SK-OV-3 ovarian): 1.16 µM; TGI (SK-OV-3 ovarian): 11.3 µM; GI50 (HT29 colon): > 100 µM; TGI (HT29 colon): > 100 µM; GI50 (HCT-15 colon): > 100 µM; TGI (HCT-15 colon): > 100 µM; GI50 (SNB-19 CNS): 26.8 µM; TGI (SNB-19 CNS): > 100 µM; GI50 (HOP-62 NSCLC): 15.1 µM; TGI (HOP-62 NSCLC): 38.7 µM; GI50 (A498 renal): 2.21 µM; TGI (A498 renal): 8.37 µM; GI50 (PC-3 prostate): > 100 µM; TGI (PC-3 prostate): > 100 µM; GI50 (OVCAR-8 ovarian): 20.7 µM; TGI (OVCAR-8 ovarian): > 100 µM; GI50 (NCI-H23 lung): 39.3 µM; TGI (NCI-H23 lung): > 100 µM; GI50 (MDA-MB-435): > 100 µM; TGI (MDA-MB-435): > 100 µM; GI50 (SK-MEL-28 melanoma): > 100 µM; TGI (SK-MEL-28 melanoma): > 100 µM; GI50 (NCI-H522 lung): 63 µM; TGI (NCI-H522 lung): > 100 µM; GI50 (MDA-MB-231 breast): 17.1 µM; TGI (MDA-MB-231 breast): > 100 µM; GI50 (OVCAR-4 ovarian): 0.34 µM; TGI (OVCAR-4 ovarian): 1.65 µM; GI50 (SK-MEL-5 melanoma): > 100 µM; TGI (SK-MEL-5 melanoma): > 100 µM; GI50 (ACHN renal): 0.576 µM; TGI (ACHN renal): 15.6 µM
